Test results published in US9315491B2 (DEVELOPMENT CENTER FOR BIOTECHNOLOGY, priority 2009, dated 2016).

Target: recombinant mTOR (Homo sapiens (Human), UniProt P42345)
Assay: mTOR kinase assay (33P incorporation into 4EBP1)
Type: biochemical
Conditions: compound at 10 μM, 10 μM ATP
Procedure: The activity of the compound against mTOR was examined by measuring the incorporation of ^33P from [γ-^33P]-ATP into 4EBP1. His-tagged, recombinant human 4EBP1 was expressed in E. coli, purified by nickel-nitrilotriacetic acid (Ni-NTA) resins, and stored at −80° C. Phosphorylation of 4EBP1 by mTOR was assayed in the presence or absence of the compound and performed in a final volume of 25 μl reaction buffer containing 300 ng 4EBP1, 50 ng recombinant mTOR (Invitrogen), 50 mM HEPES (pH 7.5), 1 mM EGTA, 0.01% Polysorbate 20, 10 mM MnCl2, 2.5 mM DTT, 10 μM ATP, and 0.5 μCi [γ-33P]-ATP (PerkinElmir) for 30 min at 30° C. The reactions were terminated by adding 3% phosphoric acid. The ^33P labeled 4EBP1 was transferred onto UniFilter-96 GF/B plate (PerkinElmer) and quantified by Top Count Microplate Scintillation Counter (PerkinElmer). For primary screening of kinase activity inhibition, each test compound was evaluated at […] in duplicate. […] The IC50 values of the compounds were determined after carrying out assays at eight serially diluted concentrations of each compound in duplicate. The results were analyzed using linear regression software (GraphPad Prism 5; GraphPad Software Inc.).
IC50 value is defined as the concentration of the test compound which achieves a half-maximal inhibition of the kinase activity.

Chain of recombinant mTOR (P42345 1360-2549): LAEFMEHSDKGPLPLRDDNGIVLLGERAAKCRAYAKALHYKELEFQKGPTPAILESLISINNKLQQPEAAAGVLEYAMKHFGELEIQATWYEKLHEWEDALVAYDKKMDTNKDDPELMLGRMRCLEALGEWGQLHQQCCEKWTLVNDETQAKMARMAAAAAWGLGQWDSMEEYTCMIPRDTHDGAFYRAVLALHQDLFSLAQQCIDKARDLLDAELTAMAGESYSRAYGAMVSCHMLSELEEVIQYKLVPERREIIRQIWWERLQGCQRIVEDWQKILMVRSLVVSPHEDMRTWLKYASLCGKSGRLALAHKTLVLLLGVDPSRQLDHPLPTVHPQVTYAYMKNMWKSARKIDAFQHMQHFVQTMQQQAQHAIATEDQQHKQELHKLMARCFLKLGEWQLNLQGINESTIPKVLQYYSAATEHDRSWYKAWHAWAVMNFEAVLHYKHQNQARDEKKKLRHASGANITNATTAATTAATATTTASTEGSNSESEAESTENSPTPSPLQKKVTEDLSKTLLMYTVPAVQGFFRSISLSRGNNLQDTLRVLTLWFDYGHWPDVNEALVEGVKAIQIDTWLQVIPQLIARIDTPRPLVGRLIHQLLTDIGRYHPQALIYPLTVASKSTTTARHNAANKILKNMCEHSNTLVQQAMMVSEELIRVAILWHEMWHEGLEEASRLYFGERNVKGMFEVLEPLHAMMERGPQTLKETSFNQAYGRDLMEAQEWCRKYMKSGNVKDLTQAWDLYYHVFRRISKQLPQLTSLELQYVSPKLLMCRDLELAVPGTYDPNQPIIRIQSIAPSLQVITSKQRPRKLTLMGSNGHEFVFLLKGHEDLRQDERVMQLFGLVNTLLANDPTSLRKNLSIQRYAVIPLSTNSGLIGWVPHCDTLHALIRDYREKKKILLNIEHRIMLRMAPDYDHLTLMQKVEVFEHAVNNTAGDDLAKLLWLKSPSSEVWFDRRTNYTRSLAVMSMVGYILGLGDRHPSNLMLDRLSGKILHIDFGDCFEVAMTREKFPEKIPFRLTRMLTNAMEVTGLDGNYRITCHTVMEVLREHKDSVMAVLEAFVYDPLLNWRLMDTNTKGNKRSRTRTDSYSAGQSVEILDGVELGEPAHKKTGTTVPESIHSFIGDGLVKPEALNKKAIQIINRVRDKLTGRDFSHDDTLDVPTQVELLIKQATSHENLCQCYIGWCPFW

| SMILES | inhibition at 10 µM [%] | % Inhibition @ 10 μM [%] |
| --- | --- | --- |
| CCNC(=O)Nc1ccc(-c2ncc(SC)c(N3CCOCC3)n2)cc1 [MTR-0159, 1-Ethyl-3-[4-(5-methylsulfanyl-4-morpholin-4-yl-pyrimidin-2-yl)-phenyl]-urea] | 97 | – |
| COc1cnc(-c2ccc(NC(=O)Nc3ccc(S(C)(=O)=O)cc3)cc2)nc1N1CCOCC1 [MTR-0470, 1-(4-Methanesulfonyl-phenyl)-3-[4-(5-methoxy-4-morpholin-4-yl-pyrimidin-2-yl)-phenyl]-urea] | 88 | – |
| CCOc1c(Cl)nc(-c2ccc(NC(=O)Nc3ccc(N4CCOCC4=O)cc3)cc2)nc1N1CCOCC1 [MTR-0494, 1-[4-(4-Chloro-5-ethoxy-6-morpholin-4-yl-pyrimidin-2-yl)-phenyl]-3-[4-(3-oxo-morpholin-4-yl)-phenyl]-urea] | 86 | – |
| CSc1cnc(-c2ccc(NC(=O)Nc3ccc4c(c3)OCO4)cc2)nc1N1CCOCC1 [MTR-0317, 1-Benzo[1,3]dioxol-5-yl-3-[4-(5-methylsulfanyl-4-morpholin-4-yl-pyrimidin-2-yl)-phenyl]-urea] | 93 | – |
| CSc1c(Cl)nc(-c2ccc(NC(=O)Nc3cccc(F)c3)cc2)nc1N1CCOCC1 [MTR-0137, 1-[4-(4-Chloro-5-methylsulfanyl-6-morpholin-4-yl-pyrimidin-2-yl)-phenyl]-3-(3-fluoro-phenyl)-urea] | 84 | – |
| CCOc1c(C(=O)N(CC)CC)nc(-c2ccc(NC(=O)Nc3ccccc3)cc2)nc1N1CCOCC1 [MTR-0120, 5-Ethoxy-6-morpholin-4-yl-2-[4-(3-phenyl-ureido)-phenyl]-pyrimidine-4-carboxylic acid diethylamide] | 98 | – |
| CCOc1c(C(=O)N2CCCC2)nc(-c2ccc(NC(=O)Nc3ccccc3)cc2)nc1N1CCOCC1 [MTR-0141, 1-{4-[5-Ethoxy-4-morpholin-4-yl-6-(pyrrolidine-1-carbonyl)-pyrimidin-2-yl]-phenyl}-3-phenyl-urea] | 96 | – |
| CCOc1c(C(=O)NCCN2CCOCC2)nc(-c2ccc(NC(=O)Nc3ccccc3)cc2)nc1N1CCOCC1 [MTR-0139, 5-Ethoxy-6-morpholin-4-yl-2-[4-(3-phenyl-ureido)-phenyl]-pyrimidine-4-carboxylic acid (2-morpholin-4-yl-ethyl)-amide] | 85 | – |
| CSc1cnc(-c2ccc(NC(=O)Nc3ccc(OCCN(C)C)cc3)cc2)nc1N1CCOCC1 [MTR-0343, 1-[4-(2-Dimethylamino-ethoxy)-phenyl]-3-[4-(5-methylsulfanyl-4-morpholin-4-yl-pyrimidin-2-yl)-phenyl]-urea] | 92 | – |
| CCOC(=O)c1nc(-c2ccc(NC(=O)Nc3ccc(C(N)=O)cc3)cc2F)nc(N2CCOCC2)c1OCC [MTR-0345, 2-{4-[3-(4-Carbamoyl-phenyl)-ureido]-2-fluoro-phenyl}-5-ethoxy-6-morpholin-4-yl-pyrimidine-4-carboxylic acid ethyl ester] | 95 | – |
| CCOC(=O)c1nc(-c2ccc(NC(=O)Nc3ccc(F)cc3)cc2)nc(N2CCOCC2)c1OCC [MTR-0149, 5-Ethoxy-2-{4-[3-(4-fluoro-phenyl)-ureido]-phenyl}-6-morpholin-4-yl-pyrimidine-4-carboxylic acid ethyl ester] | 93 | – |
| CSc1c(Cl)nc(-c2ccc(NC(=O)NCCCl)cc2)nc1N1CCOCC1 [MTR-0108, 1-(2-Chloro-ethyl)-3-[4-(4-chloro-5-methylsulfanyl-6-morpholin-4-yl-pyrimidin-2-yl)-phenyl]-urea] | 89 | – |
| COc1cnc(-c2ccc(NC(=O)Nc3ccncc3)cc2)nc1-c1ccncc1 [MTR-0480, 1-[4-(5-Methoxy-4-pyridin-4-yl-pyrimidin-2-yl)-phenyl]-3-pyridin-4-yl-urea] | 90 | – |
| COc1c(-c2ccc(N)cc2)nc(-c2ccc(N)cc2)nc1N1CCOCC1 [MTR-0483] | – | 88 |
| COc1ccc(NC(=O)Nc2ccc(-c3ncc(OC)c(N4CCOCC4)n3)cc2)cc1OC [MTR-0239, 1-(3,4-Dimethoxy-phenyl)-3-[4-(5-methoxy-4-morpholin-4-yl-pyrimidin-2-yl)-phenyl]-urea] | 89 | – |
| CCOC(=O)c1nc(-c2ccc(NC(=O)NC(C)C)cc2)nc(N2CCOCC2)c1OCC [MTR-0366, 5-Ethoxy-2-[4-(3-isopropyl-ureido)-phenyl]-6-morpholin-4-yl-pyrimidine-4-carboxylic acid ethyl ester] | 85 | – |
| CSc1cnc(-c2ccc(NC(=S)Nc3ccc(N4CCOCC4=O)cc3)cc2)nc1N1CCOCC1 [MTR-0319, 1-[4-(5-Methylsulfanyl-4-morpholin-4-yl-pyrimidin-2-yl)-phenyl]-3-[4-(3-oxo-morpholin-4-yl)-phenyl]-thiourea] | 84 | – |

| SMILES | inhibition at 10 µM [%] | % Inhibition @ 10 μM [%] |
| --- | --- | --- |
| COc1cnc(-c2ccc(NC(=S)Nc3ccc(F)cc3)cc2)nc1N1CCOCC1 | 89 | – |
| COc1cnc(-c2cccc(O)c2)nc1N1CCOCC1 [MTR-0116, 3-(5-Methoxy-4-morpholin-4-yl-pyrimidin-2-yl)-phenol] | 81 | – |
| CSc1c(Cl)nc(-c2ccc(NC(=O)Nc3ccc(N4CCOCC4)nc3)cc2)nc1N1CCOCC1 [MTR-0237, 1-[4-(4-Chloro-5-methylsulfanyl-6-morpholin-4-yl-pyrimidin-2-yl)-phenyl]-3-(6-morpholin-4-yl-pyridin-3-yl)-urea] | 85 | – |
| CSc1c(Cl)nc(-c2ccc(NC(=O)NC(C)C)cc2)nc1N1CCOCC1 [MTR-0306, 1-[4-(4-Chloro-5-methylsulfanyl-6-morpholin-4-yl-pyrimidin-2-yl)-phenyl]-3-isopropyl-urea] | 90 | – |
| CSc1c(Cl)nc(-c2ccc(NC(=O)Nc3ccc(N(C)C)cc3)cc2)nc1N1CCOCC1 [MTR-0123, 1-[4-(4-Chloro-5-methylsulfanyl-6-morpholin-4-yl-pyrimidin-2-yl)-phenyl]-3-(4-dimethylamino-phenyl)-urea] | 91 | – |
| CSc1c(-c2cccnc2)nc(-c2ccc(NC(=S)Nc3ccccc3)cc2)nc1N1CCOCC1 [MTR-0440, 1-[4-(5-Methylsulfanyl-4-morpholin-4-yl-6-pyridin-3-yl-pyrimidin-2-yl)-phenyl]-3-phenyl-thiourea] | 89 | – |
| CCOc1c(CN2CCN(C)CC2)nc(-c2ccc(NC(=O)Nc3ccccc3)cc2)nc1N1CCOCC1 [MTR-0172, 1-{4-[5-Ethoxy-4-(4-methyl-piperazin-1-ylmethyl)-6-morpholin-4-yl-pyrimidin-2-yl]-phenyl}-3-phenyl-urea] | 86 | – |
| COc1c(C(=O)O)nc(-c2ccc(NC(=O)Nc3ccccc3)cc2)nc1N1CCOCC1 [MTR-0183, 5-Methoxy-6-morpholin-4-yl-2-[4-(3-phenyl-ureido)-phenyl]-pyrimidine-4-carboxylic acid] | 95 | – |
| CCOc1c(-c2ccncc2)nc(-c2ccc(NC(=O)Nc3ccc(N4CCOCC4=O)cc3)cc2)nc1N1CCOCC1 [MTR-0495, 1-[4-(5-Ethoxy-4-morpholin-4-yl-6-pyridin-4-yl-pyrimidin-2-yl)-phenyl]-3-[4-(3-oxo-morpholin-4-yl)-phenyl]-urea] | 100 | – |
| CCOC(=O)c1nc(-c2ccc(NC(=O)Nc3ccc(F)c(F)c3)cc2)nc(N2CCOCC2)c1OCC [MTR-0150, 2-{4-[3-(3,4-Difluoro-phenyl)-ureido]-phenyl}-5-ethoxy-6-morpholin-4-yl-pyrimidine-4-carboxylic acid ethyl ester] | 87 | – |
| CSc1c(Cl)nc(-c2ccc(O)cc2)nc1N1CCOCC1 [MTR-0098, 4-(4-Chloro-5-methylsulfanyl-6-morpholin-4-yl-pyrimidin-2-yl)-phenol] | 86 | – |
| CCOC(=O)c1ccc(NC(=O)Nc2ccc(-c3nc(Cl)c(SC)c(N4CCOCC4)n3)cc2)cc1 [MTR-0212, 4-{3-[4-(4-Chloro-5-methylsulfanyl-6-morpholin-4-yl-pyrimidin-2-yl)-phenyl]-ureido}-benzoic acid ethyl ester] | 85 | – |
| CCOC(=O)c1nc(-c2ccc(NC(=O)Nc3ccc(OCCN(C)C)cc3)cc2)nc(N2CCOCC2)c1OCC [MTR-0363, 2-(4-{3-[4-(2-Dimethylamino-ethoxy)-phenyl]-ureido}-phenyl)-5-ethoxy-6-morpholin-4-yl-pyrimidine-4-carboxylic acid ethyl ester] | 93 | – |
| COc1cnc(-c2ccc(NC(=O)Nc3ccc(Br)nc3)cc2)nc1N1CCOCC1 [MTR-0352, 1-(6-Bromo-pyridin-3-yl)-3-[4-(5-methoxy-4-morpholin-4-yl-pyrimidin-2-yl)-phenyl]-urea] | 94 | – |
| COc1cnc(-c2ccc(NC(=O)Nc3ccc(NC(C)=O)nc3)cc2)nc1N1CCOCC1 [MTR-0486, N-(5-{3-[4-(5-Methoxy-4-morpholin-4-yl-pyrimidin-2-yl)-phenyl]-ureido}-pyridin-2-yl)-acetamide] | 88 | – |
| CCOc1c(-c2ccncc2)nc(-c2ccc(NC(=O)Nc3ccncc3)cc2)nc1N1CCOCC1 [MTR-0492, 1-[4-(5-Ethoxy-4-morpholin-4-yl-6-pyridin-4-yl-pyrimidin-2-yl)-phenyl]-3-pyridin-4-yl-urea] | 100 | – |
| CCOc1c(-c2cccnc2)nc(-c2ccc(NC(=O)Nc3cccnc3)cc2)nc1N1CCOCC1 [MTR-0491, 1-[4-(5-Ethoxy-4-morpholin-4-yl-6-pyridin-3-yl-pyrimidin-2-yl)-phenyl]-3-pyridin-3-yl-urea] | 100 | – |
